Data published in patent US20040024024A1, “Aromatic sulfone hydroxamates and their use as protease inhibitors” (priority 2001, published 2004).

Key:
Human recombinant MMP-14 = biological target: T1, Human recombinant MMP-14 (Homo sapiens, UniProt P50281); assay: In vitro MMP inhibition, IC50 determination (fluorogenic substrate I); format: biochemical
T1 construct: The catalytic domain enzyme was expressed in E. coli inclusion bodies, solubilized in urea; made in house
Procedure, shortened: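 Catalytic-domain MMP-14, expressed in E. coli and refolded, activated with APMA or trypsin; compounds incubated at room temperature with 4 μM fluorogenic substrate I (MCA-PLGL-Dpa-AR-NH2) in Tris/NaCl/CaCl2 buffer, pH 7.5. Fluorescence at ex 328/em 415 nm; IC50 from loss of fluorescence versus inhibitor concentration.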

Human recombinant MMP-1 = biological target: T2, Human recombinant MMP-1 (Homo sapiens, UniProt P03956); assay: In vitro MMP inhibition, Ki determination (fluorogenic substrate II); format: biochemical
T2 construct: made in house; host or cells: MMP-1-transfected HT-1080 cells (spent media)
T2 sequence (P03956 100-469): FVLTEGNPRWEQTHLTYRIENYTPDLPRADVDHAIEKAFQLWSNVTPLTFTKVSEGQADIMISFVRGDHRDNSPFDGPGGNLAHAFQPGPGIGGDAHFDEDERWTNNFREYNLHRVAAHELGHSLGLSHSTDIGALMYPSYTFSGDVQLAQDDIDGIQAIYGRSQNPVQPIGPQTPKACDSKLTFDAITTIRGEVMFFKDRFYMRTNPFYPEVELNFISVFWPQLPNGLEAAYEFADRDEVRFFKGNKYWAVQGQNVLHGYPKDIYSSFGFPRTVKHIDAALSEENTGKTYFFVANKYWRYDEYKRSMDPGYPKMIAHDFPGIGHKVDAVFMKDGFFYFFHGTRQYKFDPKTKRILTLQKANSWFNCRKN
Protocol: Several hydroxamates and salts thereof were analyzed in in vitro assays to determine their ability to inhibit the MMP cleavage of peptide substrates. Inhibition (Ki) and IC50 constants were calculated from the assayed hydroxamate-MMP interactions.
Human recombinant MMP-1, MMP-2, MMP-9, MMP-13, and MMP-14 were used in this assay. All enzymes were prepared in Assignee's laboratories following usual laboratory procedures. Protocols for the preparation and use of these enzymes are available in the scientific literature. See, e.g., Enzyme Nomenclature (Academic Press, San Diego, Calif., 1992) (and the citations therein). See also, Frije et al., J. Biol. Chem., 26(24), 16766-73 (1994).
The MMP-1 proenzyme was purified from the spent media of MMP-1-transfected HT-1080 cells provided by Dr. Harold Welgus of Washington University (St. Louis, Mo.). The protein was purified on a zinc chelating column.
All MMPs were activated using 4-aminophenylmercuric acetate (“APMA”, Sigma Chemical, St. Louis, Mo.) or trypsin. MMP-9 also was activated using human recombinant MMP-3 (purified in Assignee's laboratory following standard cloning and purification techniques).
Two fluorogenic, methoxycoumarin-containing polypeptide substrates were used in the MMP inhibition assays:
MCA-ArgProLeuGlyLeuDpaAlaArgGluArgNH2 (II)
Here, “Dpa” is 3-(2,4-dinitrophenyl)-L-2,3-diaminopropionyl group, and “MCA” is 7-methoxycoumarin-4-yl acetyl. Substrate (I) was purchased from Baychem (Redwood City, Calif.), and substrate II was prepared Assignee's laboratory. Substrate I was used in the IC50 determination assays, while substrate II was used in the Ki determination assays. In the absence of MMP inhibitory activity, either substrate is cleaved at the Gly-Leu peptide bond. This cleavage separates the highly fluorogenic peptide from the 2,4-dinitrophenyl quencher, thus resulting in increase of fluorescent intensity.
The stock solutions of the assayed hydroxamates (or salts thereof) were prepared in 1% dimethyl sulfoxide (DMSO). These stock solutions were diluted in Buffer A (100 mM Tris-HCl, 100 mM NaCl, 10 mM CaCl2, 0.05% polyoxyethylene 23 lauryl ether, pH 7.5) to obtain solutions with different hydroxamate concentrations, i.e., assay solutions with different concentrations of the assayed MMP inhibitory compound. The experiment controls contained the same amount of Buffer A/DMSO as the assayed sample, but contained no hydroxamate (or salt thereof).
The assays from which the Ki determinations were made were performed as follows. The assayed hydroxamate samples were incubated in separate wells of untreated white polystyrene plates (Nunc Nalgene International, Rochester, N.Y.), and analyzed on a Tecan SpectraFlour Plus plate reader. The excitation wavelength was 330 nm, and the emission wavelength—420 nm. All samples (assayed hydroxamates and controls) were incubated in separate plate wells at room temperature for 1 hr in the presence of 4 μM of MMP substrate (II). In the absence of MMP inhibitory activity, substrate II was cleaved at the Gly-Leu bond resulting in an increase of relative fluorescence. Inhibition was observed as a reduced rate of this increase in relative fluorescence. The various hydroxamates were analyzed using a single low enzyme concentration with a single substrate concentration fixed at or below the Km. This protocol is a modification of method by Knight et al., FEBS Lett., 296(3), 263-266 (1992). Apparent inhibitory constants were determined by non-linear regression of reaction velocity as a function of inhibitor and enzyme concentration using Morrison's equation, as described by Kuzmic, Anal. Biochem. 286, 45-50 (2000). Modifications were made in the non-linear regression method to allow a common control reaction rate and effective enzyme concentration to be shared between all dose-response relationships on a given assay plate. […]

SMILES	IC50 (Human recombinant MMP-14; value outside parenthesis) [µM]	Ki (Human recombinant MMP-1; value in parenthesis) [µM]	IC50 (Human recombinant MMP-14; value outside parentheses) [µM]	Ki (Human recombinant MMP-1; value in parentheses) [µM]
COCCN1CCC(C(=O)NO)(S(=O)(=O)c2ccc(OCCCc3nc(-c4ccccc4OC(F)(F)F)no3)cc2)CC1 [Example 152]	> 10	> 10	–	–
CCc1ccccc1-c1noc(CCCOc2ccc(S(=O)(=O)C3(C(=O)NO)CCN(CCOC)CC3)cc2)n1 [Example 155]	> 10	> 10	–	–
O=C(NO)C1(S(=O)(=O)c2ccc(OCCOc3cccc(-c4ccccc4)c3)cc2)CCOCC1 [Example 157]	> 10	> 10	–	–
O=C(NO)C1(S(=O)(=O)c2ccc(OCCCc3cccc(-c4cccc(F)c4)c3)cc2)CCOCC1 [Example 161]	> 10	> 10	–	–
O=C(NO)C1(S(=O)(=O)c2ccc(OCCCc3cccc(-c4ccccc4F)c3)cc2)CCOCC1 [Example 163]	> 10	> 10	–	–
COCCN1CCC(C(=O)NO)(S(=O)(=O)c2ccc(OCCCc3nc(-c4ccc(CC(C)C)cc4)no3)cc2)CC1 [Example 175]	> 10	> 10	–	–
COCCN1CCC(C(=O)NO)(S(=O)(=O)c2ccc(OCCCc3nnc(-c4ccccc4C(F)(F)F)o3)cc2)CC1 [Example 178]	> 10	> 10	–	–
CC(C)c1cccc(NC(=O)CCCOc2ccc(S(=O)(=O)C3(C(=O)NO)CCOCC3)cc2)c1 [Example 182]	> 10	6.54	–	–
COCCN1CCC(C(=O)NO)(S(=O)(=O)c2ccc(OCCCc3nc(-c4ccc(OC(F)(F)F)cc4)no3)cc2)CC1 [Example 190]	> 10	> 10	–	–
O=C(NO)C1(S(=O)(=O)c2ccc(OCCCc3ccnc(-c4ccccc4)c3)cc2)CCOCC1 [Example 197]	> 10	> 10	–	–
O=C(CCCc1ccc(S(=O)(=O)C2(C(=O)NO)CCOCC2)cc1)c1cccc(-c2ccccc2)c1 [Example 219]	> 10	5.6	–	–
O=C(CCCOc1ccc(S(=O)(=O)C2(C(=O)NO)CCOCC2)cc1)Nc1ccc(OC(F)(F)F)cc1 [Example 228]	> 10	3.94	–	–
Cc1cc(OC(F)(F)F)ccc1NC(=O)CCCOc1ccc(S(=O)(=O)C2(C(=O)NO)CCOCC2)cc1 [Example 229]	> 10	0.955	–	–
COc1ccc(/C(C#N)=C/CCCOc2ccc(S(=O)(=O)C3(C(=O)NO)CCN(C4CC4)CC3)cc2)cc1 [Example 233]	> 10	> 10	–	–
CN(C(=O)CCCOc1ccc(S(=O)(=O)C2(C(=O)NO)CCOCC2)cc1)c1ccc(OC(F)(F)F)cc1 [Example 249]	> 10	> 10	–	–
Cc1cc(NC(=O)CCCOc2ccc(S(=O)(=O)C3(C(=O)NO)CCOCC3)cc2)ccc1OC(C)C [Example 290]	> 10	> 10	–	–
O=C(NO)C1(S(=O)(=O)c2ccc(OCCCc3cncc(-c4ccc(F)cc4)c3)cc2)CCOCC1 [Example 523]	–	–	> 10	3.21
O=C(NO)C1(S(=O)(=O)c2ccc(OCCCc3cc(-c4ccc(F)cc4F)cs3)cc2)CCOCC1 [Example 587]	–	–	> 10	> 10
CCN1CCC(C(=O)NO)(S(=O)(=O)c2ccc(OCCCSc3nc4ccccc4s3)cc2)CC1 [Example 591]	–	–	> 10	> 10
O=C(Cc1csc2ccccc12)NCCOc1ccc(S(=O)(=O)C2(C(=O)NO)CCOCC2)cc1 [Example 596]	–	–	2.49	> 10
O=C(NCCOc1ccc(S(=O)(=O)C2(C(=O)NO)CCOCC2)cc1)c1cc2ccccc2[nH]1 [Example 599]	–	–	0.057	> 10
O=C(NO)C1(S(=O)(=O)c2ccc(OCCCc3cc(-c4ccc(OC(F)(F)F)cc4)cs3)cc2)CCOCC1 [Example 608]	–	–	> 10	> 10
N#Cc1ccc(-c2cccc(CCCOc3ccc(S(=O)(=O)C4(C(=O)NO)CCOCC4)cc3)c2)cc1 [Example 624]	–	–	> 10	> 10
O=C(NO)C1(S(=O)(=O)c2ccc(OCCCc3cccc(-c4ccc([N+](=O)[O-])cc4)c3)cc2)CCOCC1 [Example 626]	–	–	> 10	> 10
O=C(NO)C1(S(=O)(=O)c2ccc(OCCCc3cccc(-c4ccc5c(c4)OCO5)c3)cc2)CCOCC1 [Example 628]	–	–	> 10	> 10
O=C(NO)C1(S(=O)(=O)c2ccc(OCCCc3cccc(-c4ccc(F)cc4F)c3)cc2)CCOCC1 [Example 630]	–	–	> 10	> 10
O=C(NO)C1(S(=O)(=O)c2ccc(OCCCc3cccc(-c4ccsc4)c3)cc2)CCOCC1 [Example 632]	–	–	> 10	> 10

The next lines start with the values.

IC50 (Human recombinant MMP-14; value outside parenthesis) [µM]	Ki (Human recombinant MMP-1; value in parenthesis) [µM]	IC50 (Human recombinant MMP-14; value outside parentheses) [µM]	Ki (Human recombinant MMP-1; value in parentheses) [µM]	SMILES
> 10	> 10	–	–	CC(C)C(=O)c1cccc(CCCOc2ccc(S(=O)(=O)C3(C(=O)NO)CCOCC3)cc2)c1 [Example 95]
> 10	> 10	–	–	O=C(NO)C1(S(=O)(=O)c2ccc(OCCCc3cccc(Cc4ccccc4)c3)cc2)CCOCC1 [Example 98]
7.72	> 10	–	–	O=C(NO)C1(S(=O)(=O)c2ccc(OCCc3cccc(-c4ccncc4)c3)cc2)CCOCC1 [Example 113]
> 10	> 10	–	–	O=C(NO)C1(S(=O)(=O)c2ccc(OCCc3cccc(-c4ccccc4F)c3)cc2)CCOCC1 [Example 115]
> 10	> 10	–	–	O=C(NO)C1(S(=O)(=O)c2ccc(OCCc3cccc(-c4ccc(F)cc4)c3)cc2)CCOCC1 [Example 123]
5.82	3.58	–	–	O=C(NO)C1(S(=O)(=O)c2ccc(OCCc3cccc(-c4cccnc4)c3)cc2)CCOCC1 [Example 125]
> 10	> 10	–	–	Cc1ccc(-c2cccc(CCOc3ccc(S(=O)(=O)C4(C(=O)NO)CCOCC4)cc3)c2)cc1 [Example 127]
> 10	> 10	–	–	O=C(NO)C1(S(=O)(=O)c2ccc(OCCCc3cccc(-c4ccc(F)cc4)c3)cc2)CCN(C2CC2)CC1 [Example 139]
> 10	> 10	–	–	COCCN1CCC(C(=O)NO)(S(=O)(=O)c2ccc(OCCCc3cccc(-c4ccc(F)cc4)c3)cc2)CC1 [Example 140]
6.63	> 10	–	–	O=C(NO)C1(S(=O)(=O)c2ccc(OCCCc3cccc(-c4cccnc4)c3)cc2)CCOCC1 [Example 150]
9.12	> 10	–	–	O=C(NO)C1(S(=O)(=O)c2ccc(OCCCc3cccc(Br)c3)cc2)CCOCC1 [Example 154]
8.06	1.85	–	–	O=C(CCCOc1ccc(S(=O)(=O)C2(C(=O)NO)CCOCC2)cc1)Nc1cccc(OC(F)(F)F)c1 [Example 181]
7.63	1.44	–	–	O=C(CCCOc1ccc(S(=O)(=O)C2(C(=O)NO)CCOCC2)cc1)Nc1ccc(OC(F)(F)F)cc1 [Example 250]
